According to ChEMBL document CHEMBL1201862, “PubChem BioAssay data set” (2004):
The source made the active and inactive calls.

Columns and labels:
Caspase-6 = target: T1, Caspase-6 (Homo sapiens, UniProt P55212); test: human caspase-6 inhibitors, dose response, biochemical, VEID-R110 fluorescence, cherry-pick (AID 720632)
T1 sequence (P55212 whole entry): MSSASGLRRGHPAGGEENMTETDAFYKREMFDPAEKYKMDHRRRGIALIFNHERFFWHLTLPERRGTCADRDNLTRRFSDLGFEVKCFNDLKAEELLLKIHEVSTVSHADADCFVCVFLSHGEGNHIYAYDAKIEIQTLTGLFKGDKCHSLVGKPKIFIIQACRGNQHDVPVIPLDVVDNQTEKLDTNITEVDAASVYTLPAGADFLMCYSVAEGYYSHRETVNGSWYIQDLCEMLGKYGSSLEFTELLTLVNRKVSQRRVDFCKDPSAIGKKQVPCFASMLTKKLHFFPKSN

[1] = target: T2, Carboxy-terminal domain RNA polymerase II polypeptide A small phosphatase 1 (Homo sapiens, UniProt Q9GZU7); test: inhibitors of CTDSP1, concentration-response testing, biochemical assay, absorbance-based, actives from ultra-high-throughput screening (AID 540297); assay type: functional
T2 sequence (Q9GZU7 whole entry): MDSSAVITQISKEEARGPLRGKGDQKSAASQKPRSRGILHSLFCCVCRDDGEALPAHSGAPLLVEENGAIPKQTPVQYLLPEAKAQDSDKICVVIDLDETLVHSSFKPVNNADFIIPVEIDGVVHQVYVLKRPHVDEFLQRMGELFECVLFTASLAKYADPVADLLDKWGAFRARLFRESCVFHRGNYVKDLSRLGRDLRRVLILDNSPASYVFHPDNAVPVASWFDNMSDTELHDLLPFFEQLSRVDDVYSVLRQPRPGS

Streptokinase A = target: T3, Streptokinase A (Streptococcus pyogenes serotype M1, UniProt P10520); test: S. pyogenes streptokinase expression inhibitors, potency, dose response, plasminogen activation absorbance, OD405 (AID 1914); assay type: functional, Streptococcus pyogenes M1 GAS;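 note: secreted streptokinase activity via plasminogen activation per viability signal from cell pellet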
T3 sequence (P10520 whole entry): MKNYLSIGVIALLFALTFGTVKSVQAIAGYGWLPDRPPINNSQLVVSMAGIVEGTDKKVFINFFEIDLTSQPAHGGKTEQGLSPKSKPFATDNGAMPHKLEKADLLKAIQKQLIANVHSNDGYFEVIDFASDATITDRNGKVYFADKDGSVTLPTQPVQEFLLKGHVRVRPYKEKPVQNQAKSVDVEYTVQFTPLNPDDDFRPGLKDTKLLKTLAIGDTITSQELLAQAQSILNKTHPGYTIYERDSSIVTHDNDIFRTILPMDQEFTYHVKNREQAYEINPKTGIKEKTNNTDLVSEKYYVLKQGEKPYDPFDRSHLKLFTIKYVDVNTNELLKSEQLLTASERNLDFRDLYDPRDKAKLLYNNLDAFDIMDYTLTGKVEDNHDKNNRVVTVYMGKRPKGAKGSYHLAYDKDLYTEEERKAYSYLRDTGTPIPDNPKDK

Protein skinhead-1 = target: T4, Protein skinhead-1 (Caenorhabditis elegans, UniProt P34707); assay type: functional
T4 sequence (P34707 whole entry): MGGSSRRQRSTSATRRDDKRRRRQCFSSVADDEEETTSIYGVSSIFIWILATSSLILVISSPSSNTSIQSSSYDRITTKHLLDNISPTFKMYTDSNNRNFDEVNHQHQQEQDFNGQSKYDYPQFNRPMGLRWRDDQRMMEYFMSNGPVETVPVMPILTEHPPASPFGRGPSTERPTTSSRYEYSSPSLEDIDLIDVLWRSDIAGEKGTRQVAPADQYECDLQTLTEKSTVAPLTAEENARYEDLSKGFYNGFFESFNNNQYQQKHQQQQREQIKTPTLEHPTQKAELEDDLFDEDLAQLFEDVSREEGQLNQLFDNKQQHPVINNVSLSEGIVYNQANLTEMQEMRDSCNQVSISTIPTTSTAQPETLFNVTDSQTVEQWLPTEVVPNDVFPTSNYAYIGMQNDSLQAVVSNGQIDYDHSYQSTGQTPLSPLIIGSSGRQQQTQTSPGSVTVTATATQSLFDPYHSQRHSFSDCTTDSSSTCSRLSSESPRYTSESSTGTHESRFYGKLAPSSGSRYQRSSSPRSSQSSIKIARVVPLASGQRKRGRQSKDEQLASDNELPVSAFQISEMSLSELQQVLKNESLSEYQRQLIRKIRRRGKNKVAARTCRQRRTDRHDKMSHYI

[2] = target: Serine/threonine-protein kinase BRSK1 (Homo sapiens, UniProt Q8TDC3); assay type: functional;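 note: measured within a kinome-wide kinase panel, with the target listed as KIAA1811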
[3] = target: Serine/threonine-protein kinase D2 (Homo sapiens, UniProt Q9BZL6); assay type: functional;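 note: measured against PRKD2 as one member of a kinome-wide kinase profiling panel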
Serine/threonine-protein kinase D2, sequence (Q9BZL6 whole entry): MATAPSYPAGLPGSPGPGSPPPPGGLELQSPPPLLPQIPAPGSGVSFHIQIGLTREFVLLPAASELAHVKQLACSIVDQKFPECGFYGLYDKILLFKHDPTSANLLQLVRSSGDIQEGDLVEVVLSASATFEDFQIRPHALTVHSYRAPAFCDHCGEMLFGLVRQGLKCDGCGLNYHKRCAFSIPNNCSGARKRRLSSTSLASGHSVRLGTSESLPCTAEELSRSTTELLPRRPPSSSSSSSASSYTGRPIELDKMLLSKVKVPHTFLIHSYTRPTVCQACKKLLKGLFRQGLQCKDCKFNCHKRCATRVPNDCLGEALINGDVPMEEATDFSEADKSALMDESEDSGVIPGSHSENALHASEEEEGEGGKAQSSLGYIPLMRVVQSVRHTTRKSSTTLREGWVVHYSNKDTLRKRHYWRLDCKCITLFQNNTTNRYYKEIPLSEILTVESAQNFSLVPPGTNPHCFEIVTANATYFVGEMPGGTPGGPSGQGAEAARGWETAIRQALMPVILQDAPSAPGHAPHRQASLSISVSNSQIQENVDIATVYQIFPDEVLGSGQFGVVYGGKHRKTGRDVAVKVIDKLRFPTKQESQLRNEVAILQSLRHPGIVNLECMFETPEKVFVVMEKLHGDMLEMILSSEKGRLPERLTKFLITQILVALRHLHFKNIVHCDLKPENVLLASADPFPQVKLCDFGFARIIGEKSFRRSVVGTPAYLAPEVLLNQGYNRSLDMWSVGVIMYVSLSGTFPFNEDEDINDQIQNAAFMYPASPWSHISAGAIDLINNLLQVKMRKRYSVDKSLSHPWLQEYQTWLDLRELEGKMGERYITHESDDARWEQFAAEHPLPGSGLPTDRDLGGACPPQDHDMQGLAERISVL

[4] = target: Lymphokine-activated killer T-cell-originated protein kinase (Homo sapiens, UniProt Q96KB5); assay type: functional;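 note: value comes from a kinase panel screen in which TOPK was one of the panel members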
Lymphokine-activated killer T-cell-originated protein kinase, sequence (Q96KB5 whole entry, canonical isoform): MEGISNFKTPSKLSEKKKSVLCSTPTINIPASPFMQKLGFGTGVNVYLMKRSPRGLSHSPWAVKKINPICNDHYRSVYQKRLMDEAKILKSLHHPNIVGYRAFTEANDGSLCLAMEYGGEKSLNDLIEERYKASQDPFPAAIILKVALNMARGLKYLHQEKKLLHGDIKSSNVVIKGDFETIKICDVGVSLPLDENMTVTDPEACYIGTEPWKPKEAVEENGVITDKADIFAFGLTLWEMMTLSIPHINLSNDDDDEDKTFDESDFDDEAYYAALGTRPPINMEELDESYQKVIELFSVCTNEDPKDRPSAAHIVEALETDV

[5] = target: Casein kinase I isoform delta (Homo sapiens, UniProt P48730); assay type: functional;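 note: measured as one member (CSNK1D) of a kinome panel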
[6] = target: ALK tyrosine kinase receptor (Homo sapiens, UniProt Q9UM73); assay type: functional;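 note: ALK tested as one member of a kinase panel screen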
ALK tyrosine kinase receptor, sequence (Q9UM73 whole entry): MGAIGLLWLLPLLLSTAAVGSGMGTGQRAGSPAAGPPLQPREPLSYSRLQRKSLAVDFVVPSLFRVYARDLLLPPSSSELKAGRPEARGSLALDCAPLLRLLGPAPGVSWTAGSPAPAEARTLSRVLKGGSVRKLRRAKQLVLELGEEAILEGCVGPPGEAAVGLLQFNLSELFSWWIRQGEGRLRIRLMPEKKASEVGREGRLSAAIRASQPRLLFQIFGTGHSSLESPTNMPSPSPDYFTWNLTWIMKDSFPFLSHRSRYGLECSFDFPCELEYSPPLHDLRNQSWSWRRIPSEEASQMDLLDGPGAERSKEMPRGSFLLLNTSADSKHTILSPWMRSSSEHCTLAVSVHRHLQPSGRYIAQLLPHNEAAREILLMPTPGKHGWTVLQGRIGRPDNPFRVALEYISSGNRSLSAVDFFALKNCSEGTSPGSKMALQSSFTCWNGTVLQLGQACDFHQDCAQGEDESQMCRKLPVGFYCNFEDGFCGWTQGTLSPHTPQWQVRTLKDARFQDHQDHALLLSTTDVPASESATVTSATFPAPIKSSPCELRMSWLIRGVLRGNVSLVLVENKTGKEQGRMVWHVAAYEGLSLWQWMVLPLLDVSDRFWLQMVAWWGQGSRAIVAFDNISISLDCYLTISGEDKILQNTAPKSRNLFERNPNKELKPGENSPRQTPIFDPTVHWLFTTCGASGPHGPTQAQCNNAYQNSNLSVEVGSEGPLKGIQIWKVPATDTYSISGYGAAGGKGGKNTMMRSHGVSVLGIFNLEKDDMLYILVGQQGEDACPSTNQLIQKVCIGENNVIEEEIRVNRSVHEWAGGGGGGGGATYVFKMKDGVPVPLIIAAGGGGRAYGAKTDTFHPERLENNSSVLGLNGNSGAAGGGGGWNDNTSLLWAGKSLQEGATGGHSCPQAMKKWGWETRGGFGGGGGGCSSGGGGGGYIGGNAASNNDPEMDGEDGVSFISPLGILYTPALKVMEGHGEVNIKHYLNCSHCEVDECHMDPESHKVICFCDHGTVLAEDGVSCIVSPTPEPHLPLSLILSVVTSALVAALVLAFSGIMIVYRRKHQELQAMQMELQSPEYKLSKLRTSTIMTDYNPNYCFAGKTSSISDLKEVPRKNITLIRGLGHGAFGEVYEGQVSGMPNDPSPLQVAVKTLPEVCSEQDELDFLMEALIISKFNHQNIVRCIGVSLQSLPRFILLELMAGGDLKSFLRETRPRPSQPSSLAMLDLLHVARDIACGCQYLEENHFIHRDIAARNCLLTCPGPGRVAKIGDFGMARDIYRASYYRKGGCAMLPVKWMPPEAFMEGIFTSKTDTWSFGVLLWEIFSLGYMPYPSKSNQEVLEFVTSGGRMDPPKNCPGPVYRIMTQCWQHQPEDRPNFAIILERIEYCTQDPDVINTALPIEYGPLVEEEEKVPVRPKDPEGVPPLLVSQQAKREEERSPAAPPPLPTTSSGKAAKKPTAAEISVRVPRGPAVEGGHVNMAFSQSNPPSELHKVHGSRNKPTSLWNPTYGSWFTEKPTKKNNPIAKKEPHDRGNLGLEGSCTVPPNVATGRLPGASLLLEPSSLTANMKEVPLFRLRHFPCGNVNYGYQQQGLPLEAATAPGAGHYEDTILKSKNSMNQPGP

[7] = target: Glycogen synthase kinase-3 beta (Homo sapiens, UniProt P49841); assay type: functional;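 note: value comes from a broad kinome profiling panel, with GSK3B as the panel member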
[8] = target: Testis-specific serine/threonine-protein kinase 1 (Homo sapiens, UniProt Q9BXA7); assay type: functional
Testis-specific serine/threonine-protein kinase 1, sequence (Q9BXA7 whole entry): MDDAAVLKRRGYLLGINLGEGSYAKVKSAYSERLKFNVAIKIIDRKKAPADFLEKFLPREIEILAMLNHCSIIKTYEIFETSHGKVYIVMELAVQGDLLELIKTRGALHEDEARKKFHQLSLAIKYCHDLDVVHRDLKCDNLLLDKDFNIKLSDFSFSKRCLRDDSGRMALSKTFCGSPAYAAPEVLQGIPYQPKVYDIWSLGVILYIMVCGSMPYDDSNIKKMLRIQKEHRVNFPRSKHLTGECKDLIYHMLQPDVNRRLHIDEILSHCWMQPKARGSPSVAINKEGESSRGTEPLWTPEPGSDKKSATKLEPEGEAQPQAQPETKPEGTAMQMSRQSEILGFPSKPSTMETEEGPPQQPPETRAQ

[9] = target: Eukaryotic elongation factor 2 kinase (Homo sapiens, UniProt O00418); assay type: functional
Eukaryotic elongation factor 2 kinase, sequence (O00418 whole entry): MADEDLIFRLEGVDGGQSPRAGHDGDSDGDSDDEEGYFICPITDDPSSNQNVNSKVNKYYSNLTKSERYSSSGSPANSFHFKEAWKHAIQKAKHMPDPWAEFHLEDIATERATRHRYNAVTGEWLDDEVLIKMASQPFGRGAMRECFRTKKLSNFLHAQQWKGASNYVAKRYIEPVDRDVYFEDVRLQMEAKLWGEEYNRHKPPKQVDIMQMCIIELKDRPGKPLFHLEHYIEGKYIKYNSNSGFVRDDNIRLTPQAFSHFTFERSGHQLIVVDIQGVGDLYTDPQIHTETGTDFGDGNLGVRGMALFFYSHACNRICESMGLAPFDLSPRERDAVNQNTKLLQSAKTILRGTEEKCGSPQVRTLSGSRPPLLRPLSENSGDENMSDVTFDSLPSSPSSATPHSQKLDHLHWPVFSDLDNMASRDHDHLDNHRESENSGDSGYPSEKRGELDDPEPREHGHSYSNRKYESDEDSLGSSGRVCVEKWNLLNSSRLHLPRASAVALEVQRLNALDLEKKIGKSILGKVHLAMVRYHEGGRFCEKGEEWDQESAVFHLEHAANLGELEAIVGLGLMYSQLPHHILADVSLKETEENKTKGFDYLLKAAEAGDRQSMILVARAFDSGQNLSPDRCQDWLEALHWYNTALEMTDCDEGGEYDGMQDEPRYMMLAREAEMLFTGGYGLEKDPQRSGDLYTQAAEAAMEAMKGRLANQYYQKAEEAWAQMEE

[10] = target: Casein kinase II subunit alpha (Homo sapiens, UniProt P68400); assay type: functional
Casein kinase II subunit alpha, sequence (P68400 whole entry): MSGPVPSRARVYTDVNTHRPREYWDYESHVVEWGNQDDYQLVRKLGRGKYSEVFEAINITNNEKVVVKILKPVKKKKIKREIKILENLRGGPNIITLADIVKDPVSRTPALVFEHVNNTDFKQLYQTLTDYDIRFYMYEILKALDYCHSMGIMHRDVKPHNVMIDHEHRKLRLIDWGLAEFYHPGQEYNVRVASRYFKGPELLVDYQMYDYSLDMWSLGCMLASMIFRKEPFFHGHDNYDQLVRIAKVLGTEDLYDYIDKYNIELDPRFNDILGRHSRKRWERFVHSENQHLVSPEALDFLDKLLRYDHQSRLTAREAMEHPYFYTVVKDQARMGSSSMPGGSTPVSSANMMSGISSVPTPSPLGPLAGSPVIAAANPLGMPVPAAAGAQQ

[11] = target: Cyclin-dependent kinase 2 (Homo sapiens, UniProt P24941); assay type: functional;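 note: CDK2 measured as one member of a broad kinome profiling panel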
[12] = target: Dual specificity tyrosine-phosphorylation-regulated kinase 4 (Homo sapiens, UniProt Q9NR20); assay type: functional
Dual specificity tyrosine-phosphorylation-regulated kinase 4, sequence (Q9NR20 whole entry): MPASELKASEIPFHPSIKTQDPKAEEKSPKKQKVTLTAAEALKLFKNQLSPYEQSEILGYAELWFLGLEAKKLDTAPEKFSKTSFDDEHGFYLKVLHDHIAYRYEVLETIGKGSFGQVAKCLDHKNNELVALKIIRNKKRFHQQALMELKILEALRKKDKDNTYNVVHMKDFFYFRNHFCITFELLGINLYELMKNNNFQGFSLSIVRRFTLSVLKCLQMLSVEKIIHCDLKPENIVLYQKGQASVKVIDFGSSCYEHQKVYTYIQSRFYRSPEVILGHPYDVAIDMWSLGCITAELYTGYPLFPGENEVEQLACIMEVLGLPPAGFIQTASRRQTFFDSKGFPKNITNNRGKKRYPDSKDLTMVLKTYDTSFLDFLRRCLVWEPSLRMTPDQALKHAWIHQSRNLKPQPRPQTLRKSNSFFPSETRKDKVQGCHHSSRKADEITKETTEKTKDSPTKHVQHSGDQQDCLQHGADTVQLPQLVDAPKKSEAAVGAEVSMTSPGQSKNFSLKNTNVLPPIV

[13] = target: Maternal embryonic leucine zipper kinase (Homo sapiens, UniProt Q14680); assay type: functional

SMILES: CC(=O)NC1C(=O)N(CCN2CCOCC2)c2ccc(F)cc21 (configuration not stated)
- AC50 (Caspase-6): 16000 nM (active)

SMILES: O=C1N=C(NS(=O)(=O)Cc2ccccc2)S/C1=C1\C(=O)Nc2ccccc21
- IC50 [1]: 16700 nM (active)

SMILES: O=C1C=C(N2CCCCC2)c2ccccc2C1=O
- EC50 (Streptokinase A): 17800 nM (active)

SMILES: Clc1ccc2nc(-c3ccc(Br)s3)cn2c1
- IC50 (Protein skinhead-1): 57500 nM (inactive)

SMILES: Cc1n[nH]c2ccc(-c3cncc(OCC(N)Cc4cccc(Cl)c4)c3)cc12 (configuration not stated)
- Ki [2]: 1580 nM (active)
- Ki [3]: 39.8 nM (active)
- Ki [4]: 2510 nM (active)
- Ki [5]: 31.6 nM (active)
- Ki [6]: > 1260 nM (inactive)
- Ki [7]: 15.8 nM (active)
- Ki [8]: 100 nM (active)
- Ki [9]: > 3980 nM (inactive)
- Ki [10]: 3980 nM (active)
- Ki [11]: 25.1 nM (active)
- pKi [11]: 7.6
- Ki [12]: 316 nM (active)
- Ki [13]: 79.4 nM (active)
